Results on one compound are retold here after patent publication US20060062862A1, “Cholesterol-reducing agent made of dietary fibre and cholesterol-reducing substances” (priority 2002, published 2006).

The assay deals with Male Syrian hamsters, feed enriched with 0.35% cholesterol. As to the kind of experiment: Hypocholesterolemic activity of carob fiber and statins in vivo. The note with it: 28 days, in feed: carob fiber 2.5%, simvastatin 1.5 mg %. Further details: species or system Syrian hamster. An excerpt:
Determination of the Hypocholesterolemic Activity of Carob Fiber and Statins In Vivo Hamsters are seen as a suitable animal model for propounding the present invention, even if the metabolic processes in hamsters and humans differ slightly. At all events, the two substances tested here in combination each give alone in humans a reducing effect on the serum cholesterol values, in particular on LDL cholesterol. The effect of a combined administration of carob fiber and a statin, here simvastatin, in this model should therefore also give conclusions for humans. Male Syrian hamsters (100-120 g at the start of the study) received feed enriched with 0.35% cholesterol. […] The hamsters were divided into groups of 9 animals and treated with the test substances over a period of 28 days. After the animals were anesthetized, blood was obtained for determining the serum cholesterol values. The serum cholesterol contents were determined after obtaining the plasma from whole blood using a commercially obtained enzyme test kit. The total cholesterol content of the test groups thus determined were compared with the results of a control group which received no test substances.

As to `CCC(C)(C)C(=O)O[C@H]1C[C@@H](C)C=C2C=C[C@H](C)[C@H](CC[C@@H]3C[C@@H](O)CC(=O)O3)[C@H]21` [Simvastatin, simvastatin], the “Total cholesterol in blood serum” value (0.35% cholesterol feed, control 7.65) was determined as 6.50 mmol/L. Also, the “Changes from the control in %” value (total serum cholesterol vs control group) is 15%.
